Results: patent US11691962B2 (eXIthera Pharmaceuticals, Inc., priority 2018, dated 2023)

Target: Factor XIa (Homo sapiens (Human), UniProt P03951)
Test: Factor XIa enzyme inhibition assay (dose response, fluorogenic AMC substrate)
Type: biochemical
Conditions: read-out: hFXIa IC50
Procedure: • Assay buffer: 20 mM Hepes, pH 7.4; 150 mM NaCl; 0.02% Tween 20 • Compounds: 10 mM stocks in DMSO • Substrate: 20 mM Glp-Pro-Arg-AMC, 25 mg/2.3 mL H2O (store at +4° C.) [Factor XIa, thrombin, and trypsin] • 20 mM Pro-Phe-Arg-AMC (Bachem I-1295), 25 mg/2.2 mL H2O • or Boc-Leu-Gly-Arg-AMC (Bachem I-1105), 25 mg/2.07 mL H2O • (store at +4° C.) [Factor Xa] • Enzyme: Factor XIa; 0.25 μM in 50% glycerol (20 μg/mL) • Trypsin; 0.2 μM in 50% glycerol (4.8 μg/mL) • Thrombin; 0.2 μM in 50% glycerol (7.34 μg/mL) • Factor Xa; 0.2 μM in 50% glycerol (9.2 μg/mL) • These stocks are aliquoted (˜100 μL/aliquot) and stored at −20° C. Methods: • 1. Dilute the substrate to 100 μM in assay buffer (30 μL/6 mL). The enzyme is diluted to 0.5 nM just prior to use (12 μL/6 mL for Factor XIa; 15 μL/6 mL for all of the rest.) • 2. Pipette 50 μL of substrate into each well of the 96 well (12×8) microtiter plate. (Column 1 is used as the 100% activity control and receives no compound, and Column 12 is the blank and receives no enzyme.) Add an additional 46 μL to column 2. • 3. Pipette 4 μL of each compound into the appropriate well in column 2 of the plate (unknowns assayed in triplicate, standard assayed in duplicate). The final compound concentration will be […] of the stock. • 4. Serially two-fold dilute the compound by mixing the sample in column 2, removing 50 μL to the next well (column 3), mix and remove to column 4, etc. until column 11. After mixing column 11, remove 50 μL and discard. • 5. Pipette 50 μL of buffer into column 12. Initiate the reaction by adding 50 μL of enzyme solution to each well of columns 1-11 as rapidly as possible. • 6. Read the plate in a spectrophotometer (SpectraMax) at 30° C., wherein each well is measured every 60 s for 30 min. For Factor Xa assays, each well is measured every 1 min for a total of 60 min. • 7. For Factor XIa assays, the compounds are assayed, in duplicate, at 3 different starting concentrations, 20, 2, and 0.2 μM; 1:10, 1:100, and 1:1000 dilution of 10 mM stock or at 2, 0.2, and 0.02 μM; 1:100, 1:1000, and 1:10,000 dilution of 10 mM stock. Data for each concentration are combined for graphing and data fitting. • 8. Data can be used both for estimation of IC50 and for estimation of Kon.
Potential inhibitors of Factor XIa were evaluated using the following assay.
PyroGlu-Pro-Arg-7-methylaminocourin (AMC), available from CPC Scientific, Inc., is based on the substrate pyro-Glu-Pro-Arg-pNA (S-2366), available from Diapharma Group, Inc. (Columbus, Ohio), wherein the p-nitroanaline group is replaced with 7-methylaminocoumarin (AMC).
The final concentration of the substrate in the assay was 50 μM, and the final concentration of the enzyme was 0.25 nM. Inhibitors were tested by serial dilution over an appropriate range to yield a dose response curve for determination of the inhibitors' IC50 value. The assay mixture was read every minute for 30 minutes in order to generate progress curves. The plates were read in a Spectramax m5 Multimode Plate Reader (Molecular Devices LLC, Sunnyvale, Calif.). Dose response curves were fit to Equation 1 below in which A is the maximum inhibition, B is the minimum inhibition, C is the IC50, and D is the Hill coefficient. Y=[(A−B)/(1+(X/C)^D)]+B (Equation 1)

Factor XIa, sequence (P03951 388-625): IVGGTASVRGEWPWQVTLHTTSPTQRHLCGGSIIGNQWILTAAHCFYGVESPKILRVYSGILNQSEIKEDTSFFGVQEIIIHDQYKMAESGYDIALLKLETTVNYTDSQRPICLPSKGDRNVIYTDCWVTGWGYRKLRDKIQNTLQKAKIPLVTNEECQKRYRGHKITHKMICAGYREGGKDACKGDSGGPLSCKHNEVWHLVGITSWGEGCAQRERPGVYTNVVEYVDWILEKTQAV
Factor XIa, sequence (P03951 19-387 partner): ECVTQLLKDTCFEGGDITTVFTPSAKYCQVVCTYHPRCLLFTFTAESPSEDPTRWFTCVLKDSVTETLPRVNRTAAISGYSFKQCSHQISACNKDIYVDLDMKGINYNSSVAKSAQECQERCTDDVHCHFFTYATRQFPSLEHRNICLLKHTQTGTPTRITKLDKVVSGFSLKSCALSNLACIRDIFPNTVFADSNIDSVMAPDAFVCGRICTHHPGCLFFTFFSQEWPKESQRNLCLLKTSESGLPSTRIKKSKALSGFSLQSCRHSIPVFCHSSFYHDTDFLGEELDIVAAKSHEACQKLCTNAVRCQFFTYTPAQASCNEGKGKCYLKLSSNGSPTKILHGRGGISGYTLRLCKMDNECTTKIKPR

In the case of CC[C@@H](NC(=O)N1C(=O)[C@H](Cc2ccnc(N)c2)[C@H]1C(=O)N(C)c1ccn(C)n1)c1cccc(Cl)c1C [Compound 1-138, (2S,3R)-3-((2-aminopyridin-4-yl)methyl)-N2-(1-methyl-1H-pyrazol-3-yl)-N1-((R)-1-(3-chloro-2-methylphenyl)propyl)-N2-methyl-4-oxoazetidine-1,2-dicarboxamide], the IC50 is reported as under 10 nM.

CC[C@@H](NC(=O)N1C(=O)[C@H](Cc2ccnc(N)c2)[C@H]1C(=O)N(C)c1ccn(C)n1)c1ccsc1 [Compound 1-54, (2S,3R)-3-((2-aminopyridin-4-yl)methyl)-N2-(1-methyl-1H-pyrazol-3-yl)-N1-((R)-1-(thiophen-3-yl)propyl)-N2-methyl-4-oxoazetidine-1,2-dicarboxamide] was tested, and the IC50 was 10 to 100 nM.

For CC[C@@H](NC(=O)N1C(=O)[C@H](Cc2ccnc(NC)c2)[C@H]1C(=O)N(C)c1cccs1)c1ccccc1 [Compound 1-40, (2S,3R)-3-((2-methylaminopyridin-4-yl)methyl)-N2-(thiophen-2-yl)-N1-((R)-1-phenylpropyl)-N2-methyl-4-oxoazetidine-1,2-dicarboxamide], the IC50 was 10 to 100 nM.

Work on CC[C@@H](NC(=O)N1C(=O)[C@H](Cc2cc(C)nc(N)c2)[C@H]1C(=O)N(C)c1cnn(C)c1)c1cc(F)ccc1C [Compound 1-178, (2S,3R)-3-((2-amino-6-methylpyridin-4-yl)methyl)-N2-(1-methyl-1H-pyrazol-4-yl)-N1-((R)-1-(5-fluoro-2-methylphenyl)propyl)-N2-methyl-4-oxoazetidine-1,2-dicarboxamide] yielded an IC50 of under 10 nM.

For CC[C@@H](NC(=O)N1C(=O)[C@H](Cc2cc(C)nc(N)c2)[C@H]1C(=O)N(C)c1nccn1C)c1ccc(C)nc1 [Compound 1-82, (2S,3R)-3-((2-amino-6-methylpyridin-4-yl)methyl)-N2-(1-methyl-1H-imidazol-2-yl)-N1-((R)-1-(6-methylpyridin-3-yl)propyl)-N2-methyl-4-oxoazetidine-1,2-dicarboxamide], the IC50 was 10 to 100 nM.

Compound CC[C@@H](NC(=O)N1C(=O)[C@H](Cc2ccnc(N)c2)[C@H]1C(=O)N(C)c1nccn1C)C1CCOCC1 [Compound 1-122, (2S,3R)-3-((2-aminopyridin-4-yl)methyl)-N2-(1-methyl-1H-imidazol-2-yl)-N1-((R)-1-(oxan-4-yl)propyl)-N2-methyl-4-oxoazetidine-1,2-dicarboxamide] has an IC50 of 10 to 100 nM.

Compound CC[C@@H](NC(=O)N1C(=O)[C@H](Cc2cc(C)nc(N)c2)[C@H]1C(=O)N(C)c1cnn(C)c1)c1ccc(C)cc1C [Compound 1-179, (2S,3R)-3-((2-amino-6-methylpyridin-4-yl)methyl)-N2-(1-methyl-1H-pyrazol-4-yl)-N1-((R)-1-(2,4-dimethylphenyl)propyl)-N2-methyl-4-oxoazetidine-1,2-dicarboxamide] has an IC50 of under 10 nM.

CC[C@@H](NC(=O)N1C(=O)[C@H](Cc2ccnc(N)c2)[C@H]1C(=O)N(C)C1=NC(=O)CN1C)c1ccccc1 [Compound 1-131, (2S,3R)-3-((2-aminopyridin-4-yl)methyl)-N2-(4-oxo-1-methyl-4,5-dihydro-1H-imidazol-2-yl)-N1-((R)-1-phenylpropyl)-N2-methyl-4-oxoazetidine-1,2-dicarboxamide] gave an IC50 of 10 to 100 nM.

For CC[C@@H](NC(=O)N1C(=O)[C@H](Cc2ccnc(NC)c2)[C@H]1C(=O)N(C)c1ccnn1C)c1cccc(Cl)c1 [Compound 1-36, (2S,3R)-3-((2-methylaminopyridin-4-yl)methyl)-N2-(1-methyl-1H-pyrazol-5-yl)-N1-((R)-1-(3-chlorophenyl)propyl)-N2-methyl-4-oxoazetidine-1,2-dicarboxamide], the IC50 was 10 to 100 nM.

CC[C@H](NC(=O)N1C(=O)[C@H](Cc2ccnc(N)c2)[C@H]1C(=O)N(C)c1nccn1C)c1cc(F)ccc1F [Compound 1-221, (2S,3R)-3-((2-aminopyridin-4-yl)methyl)-N2-(1-methyl-1H-imidazol-2-yl)-N1-((S)-1-(2,5-difuorophenyl)propyl)-N2-methyl-4-oxoazetidine-1,2-dicarboxamide] gave an IC50 of 100 to 1000 nM.

Compound CC[C@@H](NC(=O)N1C(=O)[C@H](Cc2ccnc(N)c2)[C@H]1C(=O)N(C)c1ccnn1C)c1ccc(C)c(F)c1 [Compound 1-216, (2S,3R)-3-((2-aminopyridin-4-yl)methyl)-N2-(1-methyl-1H-pyrazol-5-yl)-N1-((R)-1-(3-fluoro-4-methylphenyl)propyl)-N2-methyl-4-oxoazetidine-1,2-dicarboxamide] has an IC50 of under 10 nM.

CCC[C@@H](NC(=O)N1C(=O)[C@H](Cc2ccnc(N)c2)[C@H]1C(=O)N(C)c1ccn(C)n1)C1CCCCC1 [Compound 1-68, (2S,3R)-3-((2-aminopyridin-4-yl)methyl)-N2-(1-methyl-1H-pyrazol-3-yl)-N1-((R)-1-cyclohexylbutyl)-N2-methyl-4-oxoazetidine-1,2-dicarboxamide] gave an IC50 of 10 to 100 nM.

CC[C@@H](NC(=O)N1C(=O)[C@H](Cc2ccnc(N)c2)[C@H]1C(=O)N(C)c1ccn(C)n1)c1cc(F)ccc1C [Compound 1-135, (2S,3R)-3-((2-aminopyridin-4-yl)methyl)-N2-(1-methyl-1H-pyrazol-3-yl)-N1-((R)-1-(5-fluoro-2-methylphenyl)propyl)-N2-methyl-4-oxoazetidine-1,2-dicarboxamide] gave an IC50 of under 10 nM.

For CC[C@@H](NC(=O)N1C(=O)[C@H](Cc2cc(C)nc(N)c2)[C@H]1C(=O)N(C)c1cnn(C)c1)c1ccc(C)c(C)c1 [Compound 1-175, (2S,3R)-3-((2-amino-6-methylpyridin-4-yl)methyl)-N2-(1-methyl-1H-pyrazol-4-yl)-N1-((R)-1-(3,4-dimethylphenyl)propyl)-N2-methyl-4-oxoazetidine-1,2-dicarboxamide], the IC50 was under 10 nM.

For CC[C@@H](NC(=O)N1C(=O)[C@H](Cc2ccnc(N)c2)[C@H]1C(=O)N(C)c1ccn(C)n1)c1cccs1 [Compound 1-53, (2S,3R)-3-((2-aminopyridin-4-yl)methyl)-N2-(1-methyl-1H-pyrazol-3-yl)-N1-((R)-1-(thiophen-2-yl)propyl)-N2-methyl-4-oxoazetidine-1,2-dicarboxamide], the IC50 was 10 to 100 nM.

CC[C@@H](NC(=O)N1C(=O)[C@H](Cc2ccnc(N)c2)[C@H]1C(=O)N(C)c1ccnn1C)c1cc(F)ccc1F [Compound 1-217, (2S,3R)-3-((2-aminopyridin-4-yl)methyl)-N2-(1-methyl-1H-pyrazol-5-yl)-N1-((R)-1-(2,5-difluorophenyl)propyl)-N2-methyl-4-oxoazetidine-1,2-dicarboxamide] was tested, and the IC50 was under 10 nM.

CC[C@@H](NC(=O)N1C(=O)[C@H](Cc2cc(C)nc(N)c2)[C@H]1C(=O)N(C)C1=NC(=O)CN1C)c1ccccc1 [Compound 1-139, (2S,3R)-3-((2-amino-6-methylpyridin-4-yl)methyl)-N2-(4-oxo-1-methyl-4,5-dihydro-1H-imidazol-2-yl)-N1-((R)-1-phenylpropyl)-N2-methyl-4-oxoazetidine-1,2-dicarboxamide] gave an IC50 of 10 to 100 nM.

In the case of CC[C@@H](NC(=O)N1C(=O)[C@H](Cc2cc(C)nc(NC)c2)[C@H]1C(=O)N(C)c1cnn(C)c1)c1ccccc1 [Compound 1-66, (2S,3R)-3-((2-methylamino-6-methylpyridin-4-yl)methyl)-N2-(1-methyl-1H-pyrazol-4-yl)-N1-((R)-1-phenylpropyl)-N2-methyl-4-oxoazetidine-1,2-dicarboxamide], the IC50 is reported as 10 to 100 nM.

CC[C@@H](NC(=O)N1C(=O)[C@H](Cc2cc(C)nc(N)c2)[C@H]1C(=O)N(C)c1ccnn1C)c1ccc(C)cc1F [Compound 1-160, (2S,3R)-3-((2-amino-6-methylpyridin-4-yl)methyl)-N2-(1-methyl-1H-pyrazol-5-yl)-N1-((R)-1-(2-fluoro-4-methylphenyl)propyl)-N2-methyl-4-oxoazetidine-1,2-dicarboxamide] was tested, and the IC50 was under 10 nM.
